We go through 24 compounds from US9150545B2, “Carboxamide compounds and their use as calpain inhibitors V” (ABBVIE DEUTSCHLAND GMBH & CO. KG, priority 2012, dated 2015).

This test concerns the target T1, calpain-I isolated from human erythrocytes (Homo sapiens, UniProt P07384).
T1 construct: calpain-I—isolated from human erythrocytes (Calbiochem #208713); purchased Calbiochem 208713; host or cells: human erythrocytes (native tissue isolate)
T1 sequence (P07384 1-714): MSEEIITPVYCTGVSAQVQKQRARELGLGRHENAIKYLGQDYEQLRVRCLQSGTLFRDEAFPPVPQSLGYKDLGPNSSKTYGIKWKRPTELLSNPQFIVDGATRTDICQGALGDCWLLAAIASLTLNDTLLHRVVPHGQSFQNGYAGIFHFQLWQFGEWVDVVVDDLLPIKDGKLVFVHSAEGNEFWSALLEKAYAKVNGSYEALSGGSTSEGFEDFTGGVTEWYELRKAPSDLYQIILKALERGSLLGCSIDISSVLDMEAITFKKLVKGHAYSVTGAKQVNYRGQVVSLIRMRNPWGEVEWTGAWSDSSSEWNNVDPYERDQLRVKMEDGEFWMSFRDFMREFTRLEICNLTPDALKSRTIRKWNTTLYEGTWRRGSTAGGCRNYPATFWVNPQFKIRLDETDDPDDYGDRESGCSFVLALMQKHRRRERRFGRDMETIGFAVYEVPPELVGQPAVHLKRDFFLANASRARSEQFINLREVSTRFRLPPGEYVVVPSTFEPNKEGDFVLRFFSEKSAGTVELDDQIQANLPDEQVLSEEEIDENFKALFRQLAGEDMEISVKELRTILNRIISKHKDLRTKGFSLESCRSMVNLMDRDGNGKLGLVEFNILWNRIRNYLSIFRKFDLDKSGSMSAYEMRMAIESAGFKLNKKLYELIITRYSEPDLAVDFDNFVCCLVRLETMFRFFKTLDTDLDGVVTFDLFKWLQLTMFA
T1 sequence (P04632 1-268 partner): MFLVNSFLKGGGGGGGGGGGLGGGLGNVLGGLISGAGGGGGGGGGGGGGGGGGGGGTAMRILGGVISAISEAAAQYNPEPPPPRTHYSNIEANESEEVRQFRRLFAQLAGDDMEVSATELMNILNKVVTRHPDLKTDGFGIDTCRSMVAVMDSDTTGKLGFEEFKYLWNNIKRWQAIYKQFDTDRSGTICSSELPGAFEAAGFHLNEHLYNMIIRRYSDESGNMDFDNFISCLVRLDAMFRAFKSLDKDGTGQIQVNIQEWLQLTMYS
Put plainly: Calpain I kinetic fluorescence enzyme inhibition assay. It is filed as biochemical. The note with it: apparent Ki from IC50 by Cheng-Prussoff. As to the method: Testing for blockade of the corresponding enzymic activities was carried out by means of kinetic fluorescence assays (excitation 390 nm, emission 460 nm).
Apparent Ki values were calculated from the experimentally determined IC50 values by the Cheng-Prussoff relation assuming a reversible competitive enzyme inhibition.
20 nM calpain-I—isolated from human erythrocytes (Calbiochem #208713), 100 μM Suc-Leu-Tyr-AMC (Bachem #I-1355) as substrate in buffer with 62 mM imidazole, 0.3 mM CaCl2, 0.10% CHAPS, 0.05% BSA, 1 mM DTT at pH 7.3 and room temperature.

Structures can show the parent of a compound that is named as a salt. Bounds are passed on as bounds.

For the compound `NC(=O)C(=O)C(Cc1ccccc1)NC(=O)c1cccnc1-n1ccc(CN2CCS(=O)(=O)CC2)n1` (stereo not drawn) [Example 34, N-(4-Amino-3,4-dioxo-1-phenyl-2-butanyl)-2-{3-[(1,1-dioxido-4-thiomorpholinyl)methyl]-1H-pyrazol-1-yl}nicotinamide trifluoroacetate], the Ki is less than 0.25 µM.

`CC(C)(C)OC(=O)N1Cc2cn(-c3ncccc3C(=O)NC(Cc3ccccc3)C(=O)C(N)=O)nc2C1` (stereo not drawn) [Example 43, tert-Butyl 2-(3-(4-amino-3,4-dioxo-1-phenylbutan-2-ylcarbamoyl)pyridin-2-yl)-4,6-dihydropyrrolo[3,4-c]pyrazole-5(2H)-carboxylate]: the Ki was less than 0.25 µM.

As to `CC(C)(C)C1CCN(Cc2ccn(-c3ncccc3C(=O)NC(Cc3ccccc3)C(=O)C(N)=O)n2)CC1` (stereo not drawn) [Example 23, N-(4-Amino-3,4-dioxo-1-phenylbutan-2-yl)-2-(3-((4-tert-butylpiperidin-1-yl)methyl)-1H-pyrazol-1-yl)nicotinamide], the Ki is less than 0.25 µM.

On to `NC(=O)C(=O)C(Cc1ccccc1)NC(=O)c1cccnc1-n1cc2c(n1)CNCC2` (stereo not drawn) [Example 46, N-(4-Amino-3,4-dioxo-1-phenyl-2-butanyl)-2-(4,5,6,7-tetrahydro-pyrazolo[3,4-c]pyridin-2-yl)nicotinamide hydrochloride], for which the Ki is less than 0.25 µM.

For `CC1CN(Cc2ccn(-c3ncccc3C(=O)NC(Cc3ccccc3)C(=O)C(N)=O)n2)CC(C)O1` (single isomer, unassigned) [Example 2b, N-(4-Amino-3,4-dioxo-1-phenylbutan-2-yl)-2-(3-((2,6-dimethylmorpholino)-methyl)-1H-pyrazol-1-yl)nicotinamide], the Ki was less than 0.25 µM.

Regarding `CN(Cc1ccn(-c2ncccc2C(=O)NC(Cc2ccccc2)C(=O)C(N)=O)n1)C1CC1` (stereo not drawn) [Example 26, N-(4-Amino-3,4-dioxo-1-phenylbutan-2-yl)-2-(3-((cyclopropyl(methyl)amino)methyl)-1H-pyrazol-1-yl)nicotinamide trifluoroacetate], the Ki is less than 0.25 µM.

As for `NC(=O)C(=O)C(Cc1ccccc1)NC(=O)c1cccnc1-n1ccc(CN2CCOC(c3ccccc3)C2)n1` (stereo not drawn) [Example 9, N-(4-Amino-3,4-dioxo-1-phenylbutan-2-yl)-2-(3-((2-phenylmorpholino)methyl)-1H-pyrazol-1-yl)nicotinamide trifluoroacetate], the Ki was less than 0.25 µM.

On to `CC1CN(Cc2ccn(-c3ncccc3C(=O)NC(Cc3ccccc3)C(=O)C(N)=O)n2)CC(C)O1` (single isomer, unassigned) [Example 2a, N-(4-Amino-3,4-dioxo-1-phenylbutan-2-yl)-2-(3-((2,6-dimethylmorpholino)-methyl)-1H-pyrazol-1-yl)nicotinamide], for which the Ki is less than 0.25 µM.

Regarding `CC1CCN(Cc2ccn(-c3ncccc3C(=O)NC(Cc3ccccc3)C(=O)C(N)=O)n2)CC1` (stereo not drawn) [Example 24, N-(4-Amino-3,4-dioxo-1-phenylbutan-2-yl)-2-(3-((4-methylpiperidin-1-yl)methyl)-1H-pyrazol-1-yl)nicotinamide trifluoroacetate], the Ki was less than 0.25 µM.

Turning to `NC(=O)C(=O)C(Cc1ccccc1)NC(=O)c1cccnc1-n1ccc(CN2CCOC3CCCCC32)n1` (single isomer, unassigned) [Example 8b, 2-(3-((2H-Benzo[b][1,4]oxazin-4(3H,4aH,5H,6H,7H,8H,8aH)-yl)methyl)-1H-pyrazol-1-yl)-N-(4-amino-3,4-dioxo-1-phenylbutan-2-yl)nicotinamide trifluoroacetate], the Ki is less than 0.25 µM.

Turning to `CC(c1ccn(-c2ncccc2C(=O)NC(Cc2ccccc2)C(=O)C(N)=O)n1)N1Cc2ccccc2C1` (stereo not drawn) [Example 35, N-(4-Amino-3,4-dioxo-1-phenylbutan-2-yl)-2-(3-(1-(isoindolin-2-yl)ethyl)-1H-pyrazol-1-yl)nicotinamide trifluoroacetate], the Ki is less than 0.25 µM.

As to `CN(Cc1ccn(-c2ncccc2C(=O)NC(Cc2ccccc2)C(=O)C(N)=O)n1)CC1CCC(C(F)(F)F)CC1` (stereo not drawn) [Example 25, N-(4-Amino-3,4-dioxo-1-phenylbutan-2-yl)-2-(3-((methyl((4-(trifluoromethyl)cyclohexyl)methyl)amino)methyl)-1H-pyrazol-1-yl)nicotinamide trifluoroacetate], the Ki is less than 0.25 µM.

For `NC(=O)C(=O)C(Cc1ccccc1)NC(=O)c1cccnc1-n1ccc(CN2Cc3ccccc3C2=O)n1` (stereo not drawn) [Example 36, N-(4-Amino-3,4-dioxo-1-phenylbutan-2-yl)-2-(3-((1-oxoisoindolin-2-yl)methyl)-1H-pyrazol-1-yl)nicotinamide], the Ki is less than 0.25 µM.

Consider `CCCCC(NC(=O)c1cccnc1-n1ccc(CN2CCCCC2)n1)C(=O)C(N)=O` (stereo not drawn) [Example 37, N-(1-Amino-1,2-dioxoheptan-3-yl)-2-(3-(piperidin-1-ylmethyl)-1H-pyrazol-1-yl)nicotinamide], for which the Ki is less than 0.25 µM.

For the compound `NC(=O)C(=O)C(Cc1ccccc1)NC(=O)c1cccnc1-n1cc2c(n1)CCN(Cc1ccccc1)C2` (stereo not drawn) [Example 4, N-(4-Amino-3,4-dioxo-1-phenylbutan-2-yl)-2-(5-benzyl-4,5,6,7-tetrahydro-2H-pyrazolo[4,3-c]pyridin-2-yl)nicotinamide], the Ki was less than 0.25 µM.

With `NC(=O)C(=O)C(Cc1ccccc1)NC(=O)c1cccnc1-n1ccc(CN2CCOc3ccccc32)n1` (stereo not drawn) [Example 6, 2-(3-((2H-Benzo[b][1,4]oxazin-4(3H)-yl)methyl)-1H-pyrazol-1-yl)-N-(4-amino-3,4-dioxo-1-phenylbutan-2-yl)nicotinamide], the Ki was less than 0.25 µM.

Take `CN(Cc1ccccc1)Cc1ccn(-c2ncccc2C(=O)NC(Cc2ccccc2)C(=O)C(N)=O)n1` (stereo not drawn) [Example 21, N-(4-Amino-3,4-dioxo-1-phenylbutan-2-yl)-2-(3-((benzyl(methyl)amino)methyl)-1H-pyrazol-1-yl)nicotinamide trifluoroacetate]: the Ki was less than 0.25 µM.

On to `NC(=O)C(=O)C(Cc1ccccc1)NC(=O)c1cccnc1-n1ccc(CN2CC3CC(F)(F)CC3C2)n1` (stereo not drawn) [Example 13, N-(4-amino-3,4-dioxo-1-phenyl-2-butanyl)-2-{3-[(5,5-difluorohexahydrocyclopenta[c]pyrrol-2(1H)-yl)methyl]-1H-pyrazol-1-yl}nicotinamide trifluoroacetate], for which the Ki is less than 0.25 µM.

Regarding `NC(=O)C(=O)C(Cc1ccccc1)NC(=O)c1cccnc1-n1ccc(CN2CCCCC2)n1` (stereo not drawn) [Example 7, N-(4-Amino-3,4-dioxo-1-phenylbutan-2-yl)-2-(3-(piperidin-1-ylmethyl)-1H-pyrazol-1-yl)nicotinamide hydrochloride], the Ki was less than 0.25 µM.

Consider `NC(=O)C(=O)C(Cc1ccccc1)NC(=O)c1cccnc1-n1ccc(CN2CCC(c3ccccc3)CC2)n1` (stereo not drawn) [Example 5, N-(4-Amino-3,4-dioxo-1-phenylbutan-2-yl)-2-(3-((4-phenylpiperidin-1-yl)methyl)-1H-pyrazol-1-yl)nicotinamide], for which the Ki was less than 0.25 µM.

With `CN(Cc1ccn(-c2ncccc2C(=O)NC(Cc2ccccc2)C(=O)C(N)=O)n1)C1CCCCC1` (stereo not drawn) [Example 20, N-(4-Amino-3,4-dioxo-1-phenylbutan-2-yl)-2-(3-((cyclohexyl(methyl)amino)methyl)-1H-pyrazol-1-yl)nicotinamide trifluoroacetate], the Ki is less than 0.25 µM.

Regarding `NC(=O)C(=O)C(Cc1ccccc1)NC(=O)c1cccnc1-n1ccc(CN2CC3COCC3C2)n1` (stereo not drawn) [Example 14, N-(4-Amino-3,4-dioxo-1-phenylbutan-2-yl)-2-(3-((dihydro-1H-furo[3,4-c]pyrrol-5(3H,6H,6aH)-yl)methyl)-1H-pyrazol-1-yl)nicotinamide trifluoroacetate], the Ki is less than 0.25 µM.

For the compound `CCCCC(NC(=O)c1cccnc1-n1ccc(CN2CCC(F)(F)CC2)n1)C(=O)C(N)=O` (stereo not drawn) [Example 38, N-(1-Amino-1,2-dioxoheptan-3-yl)-2-(3-((4,4-difluoropiperidin-1-yl)methyl)-1H-pyrazol-1-yl)nicotinamide], the Ki was less than 0.25 µM.

As to `NC(=O)C(=O)C(Cc1ccccc1)NC(=O)c1cccnc1-n1ccc(CN2CCC2)n1` (stereo not drawn) [Example 11, N-(4-Amino-3,4-dioxo-1-phenylbutan-2-yl)-2-(3-(azetidin-1-ylmethyl)-1H-pyrazol-1-yl)nicotinamide trifluoroacetate], the Ki lay in the range of 0.25 to 0.4 µM.
